In ChEMBL document CHEMBL2203233, “Structure-activity relationship exploration of Kv1.3 blockers based on diphenoxylate” (Bioorg Med Chem Lett, 2012):

Test system: not listed separately
Test: Lipophilicity, logP of the compound
Format: physicochemical
Settings: octanol/water

| SMILES | logP |
| --- | --- |
| O=c1ccc2c(OCCCCOc3ccccc3)c3ccoc3cc2o1 | 4.03 |

Biological target: Potassium voltage-gated channel subfamily A member 3 (Homo sapiens, UniProt P22001)
Test: Inhibition of Kv1.3 expressed in mouse L929 cells exposed to depolarizing step pulses from -80 mV to +40 mV by whole cell patch clamp method
Format: cell-based
Settings: not given

Potassium voltage-gated channel subfamily A member 3, sequence (P22001 whole entry): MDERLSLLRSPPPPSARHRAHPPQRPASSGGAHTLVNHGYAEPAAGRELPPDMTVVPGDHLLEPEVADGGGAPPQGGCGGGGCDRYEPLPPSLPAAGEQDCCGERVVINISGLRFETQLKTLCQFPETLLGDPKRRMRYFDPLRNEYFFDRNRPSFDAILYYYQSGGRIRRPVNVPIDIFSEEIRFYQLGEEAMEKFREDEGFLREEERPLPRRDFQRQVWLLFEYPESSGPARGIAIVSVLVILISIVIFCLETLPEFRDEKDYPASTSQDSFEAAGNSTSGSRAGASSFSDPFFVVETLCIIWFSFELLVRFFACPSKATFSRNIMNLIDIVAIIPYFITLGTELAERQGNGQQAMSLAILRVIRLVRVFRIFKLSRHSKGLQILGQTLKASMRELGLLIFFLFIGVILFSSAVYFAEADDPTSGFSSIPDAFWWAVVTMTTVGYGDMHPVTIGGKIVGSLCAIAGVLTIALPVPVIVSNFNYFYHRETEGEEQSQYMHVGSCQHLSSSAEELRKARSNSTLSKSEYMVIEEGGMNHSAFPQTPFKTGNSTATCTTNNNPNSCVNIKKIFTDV

| SMILES | IC50 [µM] |
| --- | --- |
| COC(=O)C1(c2ccccc2)CCN(CCC(C#N)(c2ccccc2)c2ccccc2)CC1 | 2.52 |
| N#CC(CCN1CCC(c2ccccc2)CC1)(c1ccccc1)c1ccccc1 | 2.61 |
| CCOC(=O)C1CCN(CCC(C#N)(c2ccccc2)c2ccccc2)CC1 | 230 |
| CCOC(=O)C1(c2ccccc2)CCN(CCC(c2ccccc2)c2ccccc2)CC1 | 0.9 |
| N#CC(CCN1CCCCC1)(c1ccccc1)c1ccccc1 | 20.5 |
| CCOC(=O)C1(c2ccccc2)CCN(CCCc2ccccc2)CC1 | 0.8 |
| N#CC(CCN1CCN(c2ccccc2)CC1)(c1ccccc1)c1ccccc1 | 1.86 |
| N#CC(CCN1CCN(Cc2ccccc2)CC1)(c1ccccc1)c1ccccc1 | 1.27 |
| N#CC(CCN1CC=C(c2ccccc2)CC1)(c1ccccc1)c1ccccc1 | 4.2 |
| N#CC(CCN1CCC(O)(c2ccccc2)CC1)(c1ccccc1)c1ccccc1 | 1.7 |
| N#CC(CCN1CCC(O)CC1)(c1ccccc1)c1ccccc1 | 0.75 |
| N#CC(CCN1CCCC(O)C1)(c1ccccc1)c1ccccc1 (stereo not given) | > 100 |
| OC1CCN(CCC(c2ccccc2)c2ccccc2)CC1 | 75 |
| OC1CCN(CCCc2ccccc2)CC1 | > 100 |
| CC1CCN(CCC(C#N)(c2ccccc2)c2ccccc2)CC1 | 5.8 |
| COC1CCN(CCC(C#N)(c2ccccc2)c2ccccc2)CC1 | > 100 |
| N#CC(CCN1CCC(N)CC1)(c1ccccc1)c1ccccc1 | > 100 |
| CC(C)(C)OC(=O)NC1CCN(CCC(C#N)(c2ccccc2)c2ccccc2)CC1 | 25 |
| CCOC(=O)C1(c2ccccc2)CCN(CCC(C#N)(c2ccccc2)c2ccccc2)CC1 [DIPHENOXYLATE] | 5 |
